Experimental data taken from paper PMC11656708, “PHP-Family Diesterase from Novosphingobium with Broad Specificity and High Catalytic Efficiency against Organophosphate Flame-Retardant Derived Diesters” (Biochemistry, 2024).
Read-outs that look alike come from different tables or passages of the source.

Tests used:
Sb-PDE [1] = system: T1, Sb-PDE; assay: UV/vis Michaelis-Menten kinetics; format: biochemical, Sphingobium sp. TCM1
T1 construct: synthetic gene, recombinant, purified to homogeneity; trinuclear zinc site
From the text: UV/vis Michaelis-Menten kinetics on Sb-PDE

No-PDE [2] = system: T2, No-PDE; assay: UV/vis Michaelis-Menten kinetics; format: biochemical, Novosphingobium sp. EMRT-2
T2 construct: synthetic gene, recombinant, purified to homogeneity; trinuclear zinc site
From the text: UV/vis Michaelis-Menten kinetics on No-PDE

Sb-PDE [3] = system: T1, Sb-PDE; format: biochemical, Sphingobium sp. TCM1
From the text: steady-state kinetics on Sb-PDE

No-PDE [4] = system: T2, No-PDE; assay: steady-state kinetics; format: biochemical, Novosphingobium sp. EMRT-2
From the text: steady-state kinetics on No-PDE

O=P(O)(Oc1ccccc1)Oc1ccccc1 [compound 2, diphenyl phosphate]
Km (Sb-PDE [1]): 900 µM
Km (No-PDE [2]): 2300 µM

O=[N+]([O-])c1ccc(OP(=O)(O)Oc2ccc([N+](=O)[O-])cc2)cc1 [compound 1, bis-p-nitrophenyl phosphate]
Km (Sb-PDE [1]): 140 µM
Km (No-PDE [2]): 620 µM

O=P(O)(O)Oc1ccccc1 [compound 12, phenyl phosphate]
Km (Sb-PDE [3]): 1400 µM

O=[N+]([O-])c1ccc(OP(=O)(O)O)cc1 [compound 11, p-nitrophenyl phosphate]
Km (No-PDE [4]): 1400 µM
Km (Sb-PDE [3]): 140 µM
